Tests used:
mouse (BALB/c, male) = assay: Effect of lipopolysaccharide induction on neutrophilic infiltration in mouse lung; format: in vivo; settings: neutrophil infiltration in BAL fluid, LPS-exposed BALB/c mouse, oral; for inhibition in vivo at 3 mg/kg / inhibition in vivo at 1 mg/kg: 5 h, read-out: SUPPRESSION RATIO
Procedure: Effect of Lipopolysaccharide Induction on Neutrophilic Infiltration in Mouse Lung A compound to be tested was orally administrated to a mouse (BALB/c, male), and after 30 minutes, the mouse was placed in a plastic container. Lipopolysaccharide (0.3 mg/mL) dissolved in physiological saline was aerosolized with an ultrasonic wave nebulizer (NE-U17, OMRON Corporation), and exposed to the mouse for 10 minutes. After 5 hours, the anesthetized mouse was sacrificed by exsanguination. A cannula was inserted in the respiratory tract and bronchoalveolar lavage (BAL) with 1 mL of 0.85% NaCl liquid containing 0.4% sodium citrate was carried out. This operation was repeated 3 times, to obtain a BAL fluid. The BAL fluid was centrifuged at 4° C. and ×200 g for 5 minutes, and the pellet was suspended in a physiological saline containing 0.1% BSA. The number of white blood cells was counted using Turks solution with a microscope, and the total white blood cell count was calculated. The white blood cells were fixed on a glass slide using Cytospin 3 (Thermo BioAnalysis Japan K. K.). The cells were stained with Diff-Quik (SYSMEX INTERNATIONAL REAGENTS CO., LTD.), and the number thereof was counted with a microscope, and the neutrophil ratio was calculated. The neutrophil ratio was multiplied by the total white blood cell count to calculate the total neutrophil count. An effect of the compound to be tested represents a percentage (%) of suppression ratio relative to the neutrophil count in a control.

human FPRL1 = target: T1, human FPRL1 (Homo sapiens, UniProt P25090); assay: Measurement test of agonist activity on human FPRL1 (test of calcium mobilization in cell, HEK293 with human FPRL1 and Gα15 expression vectors); format: cell-based; settings: calcium mobilization in HEK293 cells with human FPRL1 and Gα15 expression vectors
T1 construct: expressed in transfected cells; host or cells: HEK293 (JCRB9068, NIBIO), transient transfection with pCMV-script vectors using Lipofectamine 2000
T1 sequence (P25090 1-351): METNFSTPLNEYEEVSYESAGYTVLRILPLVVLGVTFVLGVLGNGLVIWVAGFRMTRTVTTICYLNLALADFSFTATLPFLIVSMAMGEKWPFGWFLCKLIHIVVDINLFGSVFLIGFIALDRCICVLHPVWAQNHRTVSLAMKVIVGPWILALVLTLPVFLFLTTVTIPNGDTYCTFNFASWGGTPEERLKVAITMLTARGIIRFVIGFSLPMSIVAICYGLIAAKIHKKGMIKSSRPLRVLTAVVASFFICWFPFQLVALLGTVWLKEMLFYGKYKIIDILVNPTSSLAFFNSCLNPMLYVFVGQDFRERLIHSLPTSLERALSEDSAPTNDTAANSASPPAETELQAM
Outline: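 HEK293 transiently co-transfected with human FPRL1 and Gα15, plated 24 h before assay, loaded with Fluo-4 NW dye plus probenecid. Compounds in eight 10-fold dilutions (DMSO stocks 10^−2 to 10^−9 M, then diluted 100-fold in assay buffer); calcium mobilization read on Flexstation for EC50.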

Row | Structure (SMILES) | inhibition in vivo at 3 mg/kg (mouse (BALB/c, male); dose 3 mg/kg) [%] | EC50 (human FPRL1) [nM] | SUPPRESSION RATIO (%) (mouse (BALB/c, male); dose 1 mg/kg) | SUPPRESSION RATIO (%) (mouse (BALB/c, male); dose 3 mg/kg) | inhibition in vivo at 1 mg/kg (mouse (BALB/c, male); dose 1 mg/kg) [%]
1 | CCN1C[C@@H](c2ccc(OC)cc2)[C@H](NC(=O)Nc2ccc(F)cc2)C1=O (relative stereo) [Example 12-1, (−)-1-[(3S*,4R*)-1-Ethyl-4-(4-methoxyphenyl)-2-oxopyrrolidin-3-yl]-3-(4-fluorophenyl) urea] | 97.4 | 0.13 |  |  | 
2 | COc1cc(F)c([C@@H]2CNC(=O)[C@H]2NC(=O)Nc2ccccc2)c(F)c1 (relative stereo) [Example 7-2, (−)-1-[(3S*,4R*)-4-(2,6-difluoro-4-methoxyphenyl)-2-oxopyrrolidin-3-yl]-3-phenylurea] |  | 0.45 | 87.7 |  | 
3 | COc1cc(F)c([C@@H]2CN/C(=N\OCCO)[C@H]2NC(=O)Nc2ccc(C)cc2)c(F)c1 (single isomer, unassigned) [EXAMPLE 32-12, (−)-1-{(3S*,4R*,Z)-4-(2,6-difluoro-4-methoxyphenyl)-2-[(2-hydroxyethoxy)imino]pyrrolidin-3-yl}-3-(p-tolyl)urea] |  | 0.27 | 96.8 |  | 
4 | COc1cc(F)c([C@@H]2CNC(=O)[C@H]2NC(=O)Nc2ccc(Cl)c(O)c2)c(F)c1 (relative stereo) [Example 1-72, (−)-1-(4-chloro-3-hydroxyphenyl)-3-[(3S*,4R*)-4-(2,6-difluoro-4-methoxyphenyl)-2-oxopyrrolidin-3-yl]urea] |  | 0.05 |  | 93.3 | 
5 | COc1cc(F)c([C@@H]2CNC(=O)[C@H]2NC(=O)Nc2ccc(C#N)cc2)c(F)c1 (single isomer, unassigned) [EXAMPLE 1-23, (−)-1-(4-cyanophenyl)-3-[(3S*,4R*)-4-(2,6-difluoro-4-methoxyphenyl)-2-oxopyrrolidin-3-yl]urea] | 98.9 | 0.78 |  |  | 
6 | COc1cc(F)c([C@@H]2CN(CCO)C(=O)[C@H]2NC(=O)Nc2ccc(F)cc2)c(F)c1 (single isomer, unassigned) [EXAMPLE 26-1, (−)-1-[(3S*,4R*)-4-(2,6-Difluoro-4-methoxyphenyl)-1-(2-hydroxyethyl)-2-oxopyrrolidin-3-yl]-3-(4-fluorophenyl)urea] |  | 0.07 |  |  | 99.6
7 | COc1cnc([C@@H]2CNC(=O)[C@H]2NC(=O)Nc2ccc(F)cc2)c(F)c1 (single isomer, unassigned) [EXAMPLE 1-18, (−)-1-[(3S*,4R*)-4-(3-fluoro-5-methoxypyridin-2-yl)-2-oxopyrrolidin-3-yl]-3-(4-fluorophenyl)urea] |  | 0.36 |  |  | 98.3
8 | COc1ccc([C@@H]2CN(CCO)C(=O)[C@H]2NC(=O)Nc2ccc(F)cc2)c(F)c1 (single isomer, unassigned) [EXAMPLE 25-1, (−)-1-[(3S*,4R*)-4-(2-Fluoro-4-methoxyphenyl)-1-(2-hydroxyethyl)-2-oxopyrrolidin-3-yl]-3-(4-fluorophenyl)urea] | 99.1 | 0.04 |  |  | 
9 | COc1ccc([C@@H]2CNC(=O)[C@H]2NC(=O)Nc2ccc(F)cc2)c(F)c1 (single isomer, unassigned) [EXAMPLE 1-9, (−)-1-[(3S*,4R*)-4-(2-fluoro-4-methoxyphenyl)-2-oxopyrrolidin-3-yl]-3-(4-fluorophenyl)urea] | 98.5 | 0.45 |  |  | 
10 | N#Cc1ccc(NC(=O)N[C@@H]2C(=O)NC[C@H]2c2cc3c(cc2F)OCC3)cc1 (relative stereo) [Example 1-84, (−)-1-(4-cyanophenyl)-3-[(3S*,4R*)-4-(6-fluoro-2,3-dihydrobenzofuran-5-yl)-2-oxopyrrolidin-3-yl]urea] |  | 1.92 | 99.2 |  | 
11 | COc1cc(F)c([C@@H]2CNC(=O)[C@H]2NC(=O)Nc2ccc(C)c(O)c2)c(F)c1 (relative stereo) [Example 1-68, (−)-1-[(3S*,4R*)-4-(2,6-difluoro-4-methoxyphenyl)-2-oxopyrrolidin-3-yl]-3-(3-hydroxy-4-methyl)phenyl)urea] |  | 0.08 |  | 85.6 | 
12 | COc1cc(F)c([C@@H]2CNC(=O)[C@H]2NC(=O)Nc2ccc(F)cc2)c(F)c1 (single isomer, unassigned) [EXAMPLE 1-12, (−)-1-[(3S*,4R*)-4-(2,6-difluoro-4-methoxyphenyl)-2-oxopyrrolidin-3-yl]-3-(4-fluorophenyl)urea] |  | 0.06 |  |  | 96.8
13 | CO/N=C1\NC[C@@H](c2ccc(OC)cc2)[C@@H]1NC(=O)Nc1ccc(F)cc1 (single isomer, unassigned) [EXAMPLE 32-1, (−)-1-(4-Fluorophenyl)-3-[(3S*,4R*,Z)-2-(methoxyimino)-4-(4-methoxyphenyl)pyrrolidin-3-yl]urea] | 99 | 0.13 |  |  | 
14 | COc1cc(F)c([C@@H]2CNC(=O)[C@H]2NC(=O)Nc2ccc(F)c(O)c2)c(F)c1 (relative stereo) [Example 1-71, (−)-1-[(3S*,4R*)-4-(2,6-difluoro-4-methoxyphenyl)-2-oxopyrrolidin-3-yl]-3-(4-fluoro-3-hydroxyphenyl)urea] |  | 0.09 |  | 79.7 | 
